Marks after values point to notes of the source that are not given here. Ends that are not written are not given here.
How the values were obtained:
[1] = system: Pseudomonas aeruginosa wild type (K799); assay type: cell-based; settings: Mueller Hinton Broth
Experimental: (§1) The biological activity of the peptides can be determined by standard methods known to those of skill in the art, such as Aminimal inhibitory concentration (MIC)≅ assay described in the present examples, whereby the lowest concentration at which no change in OD is observed for a given period of time is recorded as MIC. Alternatively, Afractional inhibitory concentration (FIC)≅ is also useful for determination of synergy between the peptides of the invention, or the peptides in combination with known antibiotics. FICs are performed by checkerboard titrations of peptides in one dimension of a microtiter plate, and of antibiotics in the other dimension, for example. The FIC is calculated by looking at the impact of one antibiotic on the MIC of the other and vice versa. […] Preferably, an FIC of less than 0.5 is obtained for synergism. As used herein, FIC can be determined as follows: [formula]
(§2) These peptides varied in activity (Table 11), however, the C-terminally capped pleurocidin especially and its N-terminally capped lysine derivative had much better activities against a variety of bacteria including Vibrio anguillarum (Va), Aeromonas salmonicida (As), Staphylococcus epidermidis (C621), Salmonella typhimurium wild type (C587) and phoP phoQ mutant (C610), and Pseudomonas aeruginosa wild type (K799) and outer membrane barrier altered (Z61). The antimicrobial peptide CEME, a fusion peptide made from portions of an insect defensin ceropin A and the bee venom peptide melittin (Piers and Hancock, Mol. Microbiol., 12:951-8, 1994), as well as the known antibiotics polymyxin B and gentamicin were used as controls. Replacing the pleurocidin N-terminus with the dermaseptin N-terminus had no effect. Replacing pleurocidin N-terminus with the ceratoxin N-terminus reduced activity. […] Amidating the C-terminus improved antimicrobial activity. Replacing the pleurocidin C-terminus with the misgurin C-terminus had no effect.
(§3) Bacteria included Vibrio anguillarum (Va), Aeromonas salmonicida (As), Staphylococcus epidermidis (C621), Salmonella typhimurium wild type (C587) and phoP phoQ mutant (C6 10), and Pseudomonas aeruginosa wild type (K799) and outer membrane barrier altered (Z61).

[2] = system: Salmonella typhimurium phoP phoQ mutant (C610); assay type: cell-based; settings: Mueller Hinton Broth
Experimental: as §1, §2, §3

[3] = system: Staphylococcus epidermidis (C621); assay type: cell-based; settings: Mueller Hinton Broth
Experimental: as §1, §2, §3

[4] = system: Aeromonas salmonicida (As); assay type: cell-based; settings: Mueller Hinton Broth
Experimental: as §1, §2, §3

[5] = system: Salmonella typhimurium wild type (C587); assay type: cell-based; settings: Mueller Hinton Broth
Experimental: as §1, §2, §3

[6] = system: Pseudomonas aeruginosa outer membrane barrier altered (Z61); assay type: cell-based; settings: Mueller Hinton Broth
Experimental: as §1, §2, §3

[7] = system: Vibrio anguillarum (Va); assay type: cell-based; settings: Mueller Hinton Broth
Experimental: as §1, §2, §3

[8] = system: V. anguillarum; test: Protection of coho salmon, peptide delivered constantly by intraperitoneal mini-osmotic pump; assay type: in vivo, juvenile coho salmon; settings: P-CN osmotic pump, 19 fish; for Accumulated Mortalities: 30 days, saline pump control 75%, bacteria alone 67%
Experimental: Constant delivery of peptide P-CN using intraperitoneal mini-osmotic pumps was carried out. Briefly, juvenile coho salmon were divided into three treatment groups: A. Bacterial injection alone (12 fish). B. Fish saline osmotic pump and bacterial injection (12 fish). C. A combination of P-CN osmotic pump and bacterial injection (19 fish). The fish were anaesthetized and implanted (peritoneal cavity) with mini-osmotic pumps having a pumping rate of 0.13 µl/hour. Heaters were placed in the tanks to keep the water temperature between 12 and 13° C. Pumps were filled with concentrated P-CN to deliver approximately […] peptide to fish over a 30-day period. Twelve days after pump implantation, the fish received intraperitoneal injections of V. anguillarum ([…]). Mortalities were first noticed on day 3 for the group injected with bacteria alone and on day 5 for the group which received saline osmotic pumps as well as bacterial injections. However, there was no significant difference in mortality between the bacterial injection alone group and the saline osmotic pump group (67% vs. 75%). Mortalities were delayed for the P-CN osmotic pump group. The P-CN osmotic pump group had only one fish die on day 6 over the 30 days experiments with an accumulated mortality of 5%. […] Furthermore, since cationic peptides are not effective in a single treatment and constant administration is necessary, this argues for the potential success of transgenic fish expressing peptide P-CN.
Fish loss from disease is a significant problem in aquaculture worldwide. However, expression of natural cationic peptide genes in fish could increase disease resistance because of continual cellular production of the antimicrobial peptides. In order to choose optimal peptides for transgenic fish, the antimicrobial activities of some cationic peptides were determined by testing minimum inhibitory concentrations (MICs) in vitro. […] The in vivo effect of CEME was examined by intraperitoneal injection of the peptide along with V. anguillarum into juvenile coho salmon. Fish in the bacteria alone control group had 60% mortality, while fish receiving peptide and bacteria injections had 82% mortality. […] Therefore, constant delivery of CEME and Pleurocidin-CN using intraperitoneal mini-osmotic pumps were carried out. Twelve days after pump implantation, the fish received intraperitoneal injections of V. anguillarum. The CEME and pleurocidin-CN pump group had longer survival time and lower mortalities than the control groups (50% Vs. 13%, and 75% Vs. 5%, respectively). Indolicidin transgenic cutthroat trout were made using a construct including an MT promoter, growth hormone signal, pre-region, indolicidin, and terminator. […]

[9] = system: mutant (Nal B, H744) of P. aeruginosa; test: microbe, parasite or virus in culture; assay type: cell-based
Method in brief: (§4)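 Checkerboard titration in Mueller Hinton broth, peptide against carbenicillin or ciprofloxacin, inoculum 10 μl of 10^−4 dilution of overnight culture, 18-24 h at 37 °C. Combination MIC is the lowest concentration reducing growth >50%. FIC index = A/MIC A + B/MIC B, with ≤~0.5 synergy, 1.0 additivity, >1.0 antagonism.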

[10] = system: β-lactamase derepressed mutant (H547) of P. aeruginosa; test: microbe, parasite or virus in culture; assay type: cell-based; settings: P. aeruginosa H547
Method in brief: as §4

[11] = system: Pseudomonas aeruginosa strain M2; test: Protection of neutropenic CD-1 mice challenged with Pseudomonas aeruginosa; assay type: in vivo; set-up: Survival post bacterial challenge, surviving mice: reference not given here; settings: for Survival (%) post bacterial challenge: PBS 8
Method in brief: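 Neutropenia induced by three i.p. cyclophosphamide doses ([…], alternate days); mice then infected i.p. with 200-300 organisms/mouse. Peptides (200 µg/mouse = 8 mg/kg) in buffered citrate given i.p. at 30 min (single) or 30 min and 16 hrs (double) post-challenge; PBS control; mean of 2 experiments.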

[12] = Lethal endotoxemia in galactosamine-sensitized mice; assay type: in vivo, CD-1 mice; settings: peptide 200 μg intraperitoneal within 10 min of 10 μg LPS; 24 hours post injection; 5 mice per group; no peptide 100
Experimental: To confirm this in vivo, endotoxic shock was induced by intraperitoneal injection of 10 μg of E.coli 0111:B4 LPS in phosphate-buffered saline (PBS; pH 7.2) into galactosamine-sensitized 8- to 10- week old female CD-1 mice (5 per group). In experiments involving peptides, 200 μg in 100 μl of sterile water was injected at separate intraperitoneal sites within 10 min of LPS injection. Survival was monitored at 24 hours post injection.

[13] = system: S. aureus; test: MIC, broth microdilution assay in polypropylene microtiter trays; assay type: cell-based; settings: average of three separate experiments
Method in brief: (§5)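 Broth microdilution in polypropylene microtiter trays; MIC taken as lowest peptide concentration giving no change in OD over a set period.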

[14] = system: E. coli; test: as above; assay type: cell-based; settings: average of three separate experiments
Method in brief: as §5

[15] = system: P. aeruginosa; test: as above; assay type: cell-based; settings: average of three separate experiments
Method in brief: as §5

[16] = system: S. epidermis; test: as above; assay type: cell-based; settings: average of three separate experiments
Method in brief: as §5

[17] = system: S. aureus K147; test: as above; assay type: cell-based; settings: average of three separate experiments
Method in brief: as §5

[18] = system: E. coli; test: Synergy study (checkerboard titration) with hen white lysozyme; assay type: cell-based
[19] = system: P. aeruginosa (H103); test: as above; assay type: cell-based
[20] = system: Salmonella typhi; test: as above; assay type: cell-based
[21] = system: Pseudomonas aeruginosa PAO; test: Chronic Pseudomonas aeruginosa lung infection in rats, aerosol treatment; assay type: in vivo; settings: lungs, quantitative culture; aerosol 10 ml of 5 mg/ml once daily for three days; untreated control 1.2 × 10^6
Experimental: Fifteen animals were utilized in these experiments (5 animals in each of three groups). All animals were inoculated intratracheal with 10^4 Pseudomonas aeruginosa PAO in agar beads. Three days following inoculation, rats were exposed to aerosol preparations from and Aero-Tech II nebulizer (CIS-US, Bedford, Mass.). The nebulizer was operated at 45 psi, with a flow rate of 10 L/min and contained 10 ml of the preparation to be aerosolized. The 10 ml volume was dispensed in 25-30 minutes. Animals were treated once daily for three days; control animals received daily exposure to 10 mls of 10 mM sodium citrate (pH 7.0); one treatment group received daily exposure to 10 mls of 10 mM sodium citrate (pH 7.0) containing 5 mg/ml of CM3; one treatment group received daily exposure to 10 mls of 10 mM sodium citrate (pH 7.0) containing 5 mg/ml of Cpα2. Animals were sacrificed on day 3, at one hour following the last exposure. The lungs of the treatment and control animals were removed for quantitative culture.

[22] = cationic peptide concentration, combined with lysozyme
[23] = lysozyme concentration, combined with the peptide

GWGSFFKKAAHVGKHVGKAALTHYL-NH2 [P-CN]
MIC K799 [1]: 8 µg/mL
MIC C610 [2]: <0.5 µg/mL
MIC C621 [3]: 4 µg/mL
MIC As [4]: 1 µg/mL
MIC C587 [5]: 4 µg/mL
MIC Z61 [6]: 4 µg/mL
MIC Va [7]: 2 µg/mL
Accumulated Mortalities [8]: 5%
Accumulated Mortalities ([8]; listed as pleurocidin-CN): 5%
Mortalities (fish died on the day) ([8]; day 6 after V. anguillarum challenge): 1

KWKKFIKSLTKSAAKTVVKTAKKPLIV [CM3]
MIC A MIC of Peptides ([9]; peptide alone, P. aeruginosa mutant Nal B, H744 (Table 5)): 2 µg/mL
(A) Peptide doses together with Cipro ([9]; peptide concentration in combination with ciprofloxacin, Nal B, H744): .5 µg/mL
(B) MIC of Carb when combined with peptide ([10]; Carbenicillin with peptide at concentration (A)): 32 µg/mL
FIC index ([10]; peptide + Carbenicillin, about 0.5 or less synergy, 1.0 additivity, >1.0 antagonism): 0.75
MIC A MIC of Peptides ([10]; peptide alone): 2 µg/mL
(A) Peptide doses together with Carb ([10]; peptide concentration in combination with Carbenicillin): .5 µg/mL
Survival post bacterial challenge, surviving mice ([11]; double dose (200 μg per mouse i.p. at 30 min and 16 hrs), 16 hr): 13
Survival post bacterial challenge, surviving mice ([11]; double dose, 24 hr): 13
Survival post bacterial challenge, surviving mice ([11]; double dose, 41 hr): 11
Survival post bacterial challenge, surviving mice ([11]; double dose, 48 hr): 11
Survival post bacterial challenge, surviving mice ([11]; double dose, 64 hr): 10
Survival (%) post bacterial challenge ([11]; double dose, 64 hr): 76%
Survival post bacterial challenge, surviving mice ([11]; double dose, 72 hr): 10
Survival (%) post bacterial challenge ([11]; double dose, 72 hr): 76%
Survival post bacterial challenge, surviving mice ([11]; double dose, 96 hr): 8
Survival (%) post bacterial challenge ([11]; double dose, 96 hr): 61%
Survival post bacterial challenge, surviving mice ([11]; single dose (200 μg per mouse i.p. at 30 min), 16 hr): 15
Survival post bacterial challenge, surviving mice ([11]; single dose, 24 hr): 15
Survival post bacterial challenge, surviving mice ([11]; single dose, 41 hr): 14
Survival post bacterial challenge, surviving mice ([11]; single dose, 48 hr): 13
Survival post bacterial challenge, surviving mice ([11]; single dose, 64 hr): 12
Survival (%) post bacterial challenge ([11]; single dose, 64 hr): 80%
Survival post bacterial challenge, surviving mice ([11]; single dose, 72 hr): 11
Survival (%) post bacterial challenge ([11]; single dose, 72 hr): 73%
Survival post bacterial challenge, surviving mice ([11]; single dose, 96 hr): 11
Survival (%) post bacterial challenge ([11]; single dose, 96 hr): 73%
Mortality (%) [12]: 80%
MIC S. aureus [13]: >64 µg/mL
MIC E. coli [14]: 1 µg/mL
MIC P. aeruginosa [15]: 5 µg/mL
MIC S. epidermis [16]: 16 µg/mL
MIC S. aureus K147 [17]: >64 µg/mL
FIC for combination of cationic peptide and lysozyme [18]: 0.31
Lowest [CP] showing synergy [18, 22]: 0.041 µg/mL
Lowest [Lyso] showing synergy [18, 23]: 15.6 µg/mL
FIC for combination of cationic peptide and lysozyme [19]: 0.50
Lowest [CP] showing synergy [19, 22]: 1.3 µg/mL
Lowest [Lyso] showing synergy [19, 23]: 15.6 µg/mL
FIC for combination of cationic peptide and lysozyme [20]: 0.75
Lowest [CP] showing synergy [20, 22]: 2.61 µg/mL
Lowest [Lyso] showing synergy [20, 23]: 250 µg/mL
Mean Colony Forming Units +/− S.D. [21]: 7.4 × 10^4 +/− 6.7 × 10^4* CFU

From US6818407B2, “Anti-endotoxic antimicrobial cationic peptides and methods of use therfor” (priority 1998, dated 2004)
